US9931327B2, “Derivatives of 1-phenyl-2-pyridinyl alkyl alcohols as phosphodiesterase inhibitors” (Chiesi Farmaceutici S.p.A., priority 2011, dated 2018)

These compounds were tested on LPS-induced TNF-α release in peripheral blood mononuclear cells (PBMCs) (assay: In vitro determination of PDE4 inhibitory activity in the PBMCs assay (LPS-induced TNF-α release)). Details: PBMC; human PBMCs, LPS 3 ng/ml, 18 hours, TNF-α by ELISA; read-out: PDE4 inhibition (IC50, 50% inhibition of LPS-induced TNF-α release).
Format: cell-based, human
Protocol: The assay, which is based on the known inhibitory activity exerted by PDE4 inhibitors on the lipopolyshaccarides (LPS)-induced tumour necrosis factor-alpha (TNF-α release in peripheral blood mononuclear cells (PBMCs), was performed according to a method previously described (Hatzelmann A et al., J. Pharmacol. Exp. Ther., 2001; 297:267-279; and Draheim R et al., J. Pharmacol. Exp. Ther., 2004; 308:555-563, which are incorporated herein by reference in their entireties). Cryopreserved human PBMCs, (100 l/well) were incubated in 96-well plates (10^5 cells/well), for 30 minutes, in the presence or absence (50 microl) of the test compounds whose concentrations ranged from 10^−12 M to 10^−6 M or from […] to 10^−7 M. Subsequently, LPS (3 ng/ml) was added.
After 18 hours of incubation at 37° C. in a humidified incubator under an atmosphere of 95% air and 5% CO2, culture medium was collected and TNF-α measured by ELISA. The results of the tested compounds, representatives of the invention, expressed as mean±95% confidence limits of the molar concentration of the test compound producing 50% inhibition of LPS-induced TNF-α release (IC50) are shown in the following Table: […]
`Cn1ccnc1S(=O)(=O)N1CCSC1C(=O)O[C@@H](Cc1c(Cl)c[n+]([O-])cc1Cl)c1ccc(OC(F)F)c(OCC2CC2)c1` (stereo partly drawn) [Compound 64, 3,5-dichloro-4-((2S)-2-(3-(cyclopropylmethoxy)-4-(difluoromethoxy)phenyl)-2-(3-(1-methyl-1H-imidazol-2-ylsulfonyl)thiazolidine-2-carbonyloxy)ethyl)pyridine 1-oxide] showed an IC50 of under 0.1 nM. In the case of `O=C(O[C@@H](Cc1c(Cl)c[n+]([O-])cc1Cl)c1ccc(OC(F)F)c(OCC2CC2)c1)C1SCCN1S(=O)(=O)CC1CC1` (stereo partly drawn) [Compound 65, 3,5-dichloro-4-((2S)-2-(3-(cyclopropylmethoxy)-4-(difluoromethoxy)phenyl)-2-(3-(cyclopropylmethylsulfonyl)thiazolidine-2-carbonyloxy)ethyl)pyridine 1-oxide], the IC50 is reported as 0.1 to 1 nM. For `O=C(O[C@@H](Cc1c(Cl)c[n+]([O-])cc1Cl)c1ccc(OC(F)F)c(OCC2CC2)c1)C1SCCN1S(=O)(=O)c1cccnc1` (stereo partly drawn) [Compound 66, 3,5-dichloro-4-((2S)-2-(3-(cyclopropylmethoxy)-4-(difluoromethoxy)phenyl)-2-(3-(pyridin-3-ylsulfonyl)thiazolidine-2-carbonyloxy)ethyl)pyridine 1-oxide], the IC50 was under 0.1 nM. `O=C(O[C@@H](Cc1c(Cl)c[n+]([O-])cc1Cl)c1ccc(OC(F)F)c(OCC2CC2)c1)C1SCCN1S(=O)(=O)c1ccc(F)cc1F` (stereo partly drawn) [Compound 67, 3,5-dichloro-4-((2S)-2-(3-(cyclopropylmethoxy)-4-(difluoromethoxy)phenyl)-2-(3-(2,4-difluorophenylsulfonyl)thiazolidine-2-carbonyloxy)ethyl)pyridine 1-oxide] was tested, and the IC50 was 0.1 to 1 nM. Compound `O=C(O[C@@H](Cc1c(Cl)c[n+]([O-])cc1Cl)c1ccc(OC(F)F)c(OCC2CC2)c1)C1SCCN1S(=O)(=O)c1ccc(F)cc1Cl` (stereo partly drawn) [Compound 68, 3,5-dichloro-4-((2S)-2-(3-(2-chloro-4-fluorophenylsulfonyl)thiazolidine-2-carbonyloxy)-2-(3-(cyclopropylmethoxy)-4-(difluoromethoxy)phenyl)ethyl)pyridine 1-oxide] has an IC50 of 0.1 to 1 nM. Compound `Cc1cc(F)ccc1S(=O)(=O)N1CCSC1C(=O)O[C@@H](Cc1c(Cl)c[n+]([O-])cc1Cl)c1ccc(OC(F)F)c(OCC2CC2)c1` (stereo partly drawn) [Compound 69, 3,5-dichloro-4-((2S)-2-(3-(cyclopropylmethoxy)-4-(difluoromethoxy)phenyl)-2-(3-(4-fluoro-2-methylphenylsulfonyl)thiazolidine-2-carbonyloxy)ethyl)pyridine 1-oxide] has an IC50 of 0.1 to 1 nM. `O=C(O[C@@H](Cc1c(Cl)c[n+]([O-])cc1Cl)c1ccc(OC(F)F)c(OCC2CC2)c1)C1SCCN1S(=O)(=O)c1ccccc1Cl` (stereo partly drawn) [Compound 70, 3,5-dichloro-4-((2S)-2-(3-(2-chlorophenylsulfonyl)thiazolidine-2-carbonyloxy)-2-(3-(cyclopropylmethoxy)-4-(difluoromethoxy)phenyl)ethyl)pyridine 1-oxide] gave an IC50 of 0.1 to 1 nM. Compound `O=C(O[C@@H](Cc1c(Cl)c[n+]([O-])cc1Cl)c1ccc(OC(F)F)c(OCC2CC2)c1)C1SCCN1S(=O)(=O)C1CCCCC1` (stereo partly drawn) [Compound 71, 3,5-dichloro-4-((2S)-2-(3-(cyclohexylsulfonyl)thiazolidine-2-carbonyloxy)-2-(3-(cyclopropylmethoxy)-4-(difluoromethoxy)phenyl)ethyl)pyridine 1-oxide] has an IC50 of 1 to 10 nM. Compound `COc1ccc(S(=O)(=O)N2CCSC2C(=O)O[C@@H](Cc2c(Cl)c[n+]([O-])cc2Cl)c2ccc(OC(F)F)c(OCC3CC3)c2)cc1OC` (stereo partly drawn) [Compound 73, 3,5-dichloro-4-((2S)-2-(3-(cyclopropylmethoxy)-4-(difluoromethoxy)phenyl)-2-(3-(3,4-dimethoxyphenylsulfonyl)thiazolidine-2-carbonyloxy)ethyl)pyridine 1-oxide] has an IC50 of under 0.1 nM. `O=C(O[C@@H](Cc1c(Cl)c[n+]([O-])cc1Cl)c1ccc(OC(F)F)c(OCC2CC2)c1)C1SCCN1S(=O)(=O)c1ccc(N2CCOCC2)nc1` (stereo partly drawn) [Compound 74, 3,5-dichloro-4-((2S)-2-(3-(cyclopropylmethoxy)-4-(difluoromethoxy)phenyl)-2-(3-(6-morpholinopyridin-3-ylsulfonyl)thiazolidine-2-carbonyloxy)ethyl)pyridine 1-oxide] gave an IC50 of under 0.1 nM. `Cc1noc(C)c1S(=O)(=O)N1CCSC1C(=O)O[C@@H](Cc1c(Cl)c[n+]([O-])cc1Cl)c1ccc(OC(F)F)c(OCC2CC2)c1` (stereo partly drawn) [Compound 76, 3,5-dichloro-4-((2S)-2-(3-(cyclopropylmethoxy)-4-(difluoromethoxy)phenyl)-2-(3-(3,5-dimethylisoxazol-4-ylsulfonyl)thiazolidine-2-carbonyloxy)ethyl)pyridine 1-oxide] gave an IC50 of 0.1 to 1 nM. `CN(C)C(=O)c1cccc(S(=O)(=O)N2CCOC(C(=O)O[C@@H](Cc3c(Cl)c[n+]([O-])cc3Cl)c3ccc(OC(F)F)c(OCC4CC4)c3)C2)c1` (stereo partly drawn) [Compound 78, 3,5-dichloro-4-((2S)-2-(3-(cyclopropylmethoxy)-4-(difluoromethoxy)phenyl)-2-(4-(3-(dimethylcarbamoyl)phenylsulfonyl)morpholine-2-carbonyloxy)ethyl)pyridine 1-oxide] showed an IC50 of 0.1 to 1 nM. Work on `O=C(O[C@@H](Cc1c(Cl)c[n+]([O-])cc1Cl)c1ccc(OC(F)F)c(OCC2CC2)c1)C1CN(S(=O)(=O)c2ccccc2)CCO1` (stereo partly drawn) [Compound 79, 3,5-dichloro-4-((2S)-2-(3-(cyclopropylmethoxy)-4-(difluoromethoxy)phenyl)-2-(4-(phenylsulfonyl)morpholine-2-carbonyloxy)ethyl)pyridine 1-oxide] yielded an IC50 of 0.1 to 1 nM. In the case of `CN(C)C(=O)c1cccc(S(=O)(=O)N2CCSCC2C(=O)O[C@@H](Cc2c(Cl)c[n+]([O-])cc2Cl)c2ccc(OC(F)F)c(OCC3CC3)c2)c1` (stereo partly drawn) [Compound 80, 3,5-dichloro-4-((2S)-2-(3-(cyclopropylmethoxy)-4-(difluoromethoxy)phenyl)-2-(4-(3-(dimethylcarbamoyl)phenylsulfonyl)thiomorpholine-3-carbonyloxy)ethyl)pyridine 1-oxide], the IC50 is reported as 0.1 to 1 nM. For `CNS(=O)(=O)c1ccc(S(=O)(=O)N2CCSCC2C(=O)O[C@@H](Cc2c(Cl)c[n+]([O-])cc2Cl)c2ccc(OC(F)F)c(OCC3CC3)c2)cc1` (stereo partly drawn) [Compound 81, 3,5-dichloro-4-((2S)-2-(3-(cyclopropylmethoxy)-4-(difluoromethoxy)phenyl)-2-(4-(4-(N-methylsulfamoyl)phenylsulfonyl)thiomorpholine-3-carbonyloxy)ethyl)pyridine 1-oxide], the IC50 was 0.1 to 1 nM. In the case of `CN(C)C(=O)c1cccc(S(=O)(=O)N2CCCC[C@H]2C(=O)O[C@@H](Cc2c(Cl)c[n+]([O-])cc2Cl)c2ccc(OC(F)F)c(OCC3CC3)c2)c1` [Compound 82, 3,5-dichloro-4-((S)-2-(3-(cyclopropylmethoxy)-4-(difluoromethoxy)phenyl)-2-((S)-1-(3-(dimethylcarbamoyl)phenylsulfonyl)piperidine-2-carbonyloxy)ethyl)pyridine 1-oxide], the IC50 is reported as under 0.1 nM. Work on `CN(C)C(=O)c1cccc(S(=O)(=O)N2CCCC[C@@H]2C(=O)O[C@@H](Cc2c(Cl)c[n+]([O-])cc2Cl)c2ccc(OC(F)F)c(OCC3CC3)c2)c1` [Compound 83, 3,5-dichloro-4-((S)-2-(3-(cyclopropylmethoxy)-4-(difluoromethoxy)phenyl)-2-((R)-1-(3-(dimethylcarbamoyl)phenylsulfonyl)piperidine-2-carbonyloxy)ethyl)pyridine 1-oxide] yielded an IC50 of under 0.1 nM. `CN(C)C(=O)c1cccc(S(=O)(=O)N2CSC[C@H]2C(=O)O[C@@H](Cc2c(Cl)c[n+]([O-])cc2Cl)c2ccc(OC(F)F)c(OCC3CC3)c2)c1` [Compound 84, 3,5-dichloro-4-((S)-2-(3-(cyclopropylmethoxy)-4-(difluoromethoxy)phenyl)-2-((R)-3-(3-(dimethylcarbamoyl)phenylsulfonyl)thiazolidine-4-carbonyloxy)ethyl)pyridine 1-oxide] was tested, and the IC50 was under 0.1 nM. With `O=C(O[C@@H](Cc1c(Cl)c[n+]([O-])cc1Cl)c1ccc(OC(F)F)c(OCC2CC2)c1)C1SCCN1S(=O)(=O)c1ccsc1` (stereo partly drawn) [Compound 85, 3,5-dichloro-4-((2S)-2-(3-(cyclopropylmethoxy)-4-(difluoromethoxy)phenyl)-2-(3-(thiophen-3-ylsulfonyl)thiazolidine-2-carbonyloxy)ethyl)pyridine 1-oxide] the IC50 was under 0.1 nM. Compound `O=C(O[C@@H](Cc1c(Cl)c[n+]([O-])cc1Cl)c1ccc(OC(F)F)c(OCC2CC2)c1)[C@@H]1CCCN1S(=O)(=O)c1ccccc1` [Compound 86, 3,5-dichloro-4-((S)-2-(3-(cyclopropylmethoxy)-4-(difluoromethoxy)phenyl)-2-((S)-1-(phenylsulfonyl)pyrrolidine-2-carbonyloxy)ethyl)pyridine 1-oxide] has an IC50 of 0.1 to 1 nM. For `COC(=O)c1ccc(S(=O)(=O)N2CCSC2C(=O)O[C@@H](Cc2c(Cl)c[n+]([O-])cc2Cl)c2ccc(OC(F)F)c(OCC3CC3)c2)s1` (stereo partly drawn) [Compound 87, 3,5-dichloro-4-((2S)-2-(3-(cyclopropylmethoxy)-4-(difluoromethoxy)phenyl)-2-(3-(5-(methoxycarbonyl)thiophen-2-ylsulfonyl)thiazolidine-2-carbonyloxy)ethyl)pyridine 1-oxide], the IC50 was 0.1 to 1 nM.
